Measured values published in US7018648B2, “Transdermal device for administering testosterone or one of the derivatives thereof” (Pierre Fabre Medicament, priority 1999, dated 2006).

Tests used:
[1] = Ex vivo permeation on animal skin after pretreatment with promoter compound (permeation index vs blank reference product); type: in vitro ADME; conditions: for Permeation index: ratio of cumulative amount of testosterone at 24 hours after skin pretreatment with the compound relative to blank, 1 = no promoting effect
Source text: FIG. 1 represents the permeation indices (PIs), also known as the “enhancement factors” for comparing in vitro the promoting effect of different products.
This is the product sold by the company Alza under the brand name Testoderm CIII®. This matrix transdermal device for scrotal application is free of promoters and, consequently, is more particularly suitable for performing in vitro protocols intended to select the best permeation promoters of this active principle.
As regards the second category of products, it is more particularly advantageous to check their permeation-promoting effect with respect to the active principle according to the invention. Ex vivo studies of permeation on animal skin are carried out using a reference product whose kinetics constitute a “blank”, and then after initial pretreatment of the skin with the promoter compound. The ratio of the cumulative amount at 24 hours of the test relative to the “blank” gives the permeation index “PI” factor or “enhancement factor”. A permeation index of close to 1 means that the test product has no promoting effect for the active principle under consideration and under the operating conditions used. A classification is then possible according to the indications of table II below.

[2] = Solubility at saturation of testosterone in solvents/excipients; type: physicochemical
Method: Studies for selecting the components of the adhesive matrix other than the actual adhesive are useful and involve solubility and in vitro permeation tests. To evaluate the solubilizing power of different components, solubility studies at saturation are performed.

For `CCN(CC)C(=O)c1cccc(C)c1` [DEET, N,N-diethyl-m-toluamide], the testosterone permeation-promoting effect ([1]; in words) was “lacks any testosterone-promoting effect”.

Work on `CCCCCCCCCCCCN1CCCC1=O` [Laurylpyrrolidone] yielded a Permeation index [1] of 11.27.

In the case of `C[C@]12CCC(=O)C=C1CC[C@@H]1[C@@H]2CC[C@]2(C)C(O)CC[C@@H]12` (some centres unmarked) [testosterone, 17-hydroxyandrost-4-en-3-one], the “Solubility at saturation of testosterone” value ([2]; in Cyclohexane) is reported as 0.06 % m/m, the “Solubility at saturation of testosterone” value ([2]; in Ethanol) is reported as 22.12 % m/m and the “Solubility at saturation of testosterone” value ([2]; in Ethyl acetate) is reported as 4.45 % m/m. The “Solubility at saturation of testosterone” value ([2]; in Isopropanol) was 12.80 % m/m, the “Solubility at saturation of testosterone” value ([2]; in Laurylpyrrolidone) was 15.90 % m/m and the “Solubility at saturation of testosterone” value ([2]; in Lysophosphatidylcholine) was 6.96 % m/m. The “Solubility at saturation of testosterone” value ([2]; in Methyl laurate) was 1.43 % m/m, the “Solubility at saturation of testosterone” value ([2]; in Polysorbate 80) was 2.62 % m/m and the “Solubility at saturation of testosterone” value ([2]; in Sorbitan laurate) was 4.12 % m/m. For the same compound, the “Solubility at saturation of testosterone” value ([2]; in Tetrahydrofuran) was 27.01 % m/m.

Lysophosphatidylchloline showed a Permeation index [1] of 9.18.

In the case of Sorbitan laurate, the Permeation index [1] is reported as 11.70.
